Data reported in ChEMBL document CHEMBL1156651, “Viridamides A and B, lipodepsipeptides with antiprotozoal activity from the marine cyanobacterium Oscillatoria nigro-viridis” (J Nat Prod, 2008).
Where a SMILES comes first, the peptide text is derived from it. [ ]: non-standard residue; d: D form. The star is where a group is joined. Hmpa(2S,3S) = CC[C@H](C)[C@H](O)C(=O)O; NMeI = CC[C@H](C)[C@H](NC)C(=O)O; NMeV = CN[C@H](C(=O)O)C(C)C; X1 = C#CCCCC(CCCC(=O)*)OC

Tests used:
Format in all cases: functional, organism-based
Leishmania mexicana = assay: Antileishmanial activity against Leishmania mexicana promastigotes by DNA fluorescence method
Trypanosoma cruzi = assay: Antitrypanosomal activity against Trypanosoma cruzi Tulahuen C4 in vero cells assessed as intracellular growth inhibition of trypomastigote by beta-galactosidase reporter gene assay
Plasmodium falciparum = assay: Antimalarial activity against Plasmodium falciparum

SMILES | IC50 (Leishmania mexicana) | IC50 (Trypanosoma cruzi) | IC50 (Plasmodium falciparum)
C[C@@H]1[C@H](O)[C@@H](C)/C=C/C=C/C=C/C=C/C=C/C=C/C=C/[C@H](O[C@@H]2O[C@H](C)[C@@H](O)[C@H](N)[C@@H]2O)C[C@@H]2O[C@](O)(C[C@@H](O)C[C@@H](O)[C@H](O)CC[C@@H](O)C[C@@H](O)CC(=O)O[C@H]1C)C[C@H](O)[C@H]2C(=O)O [AMPHOTERICIN B] | 100 nM |  | 
CC1CS(=O)(=O)CCN1/N=C/c1ccc([N+](=O)[O-])o1 (stereo not given) [NIFURTIMOX] |  | 10000 nM | 
C#CCCCC(CCCC(=O)N(C)[C@H](C(=O)N[C@H](C(=O)N[C@H](C(=O)N(C)[C@H](C(=O)O[C@H](C(=O)N1CCC[C@H]1C(=O)OC)[C@@H](C)CC)C(C)C)C(C)C)C(C)C)[C@@H](C)CC)OC (stereo partly drawn) [VIRIDAMIDE A] (X1-[NMeI]VV[NMeV][Hmpa(2S,3S)]P-OMe) | 1500 nM | 1100 nM | 5800 nM
